In patent US9837621B2, “Compound, light-emitting element, light-emitting device, electronic device, and lighting device” (Semiconductor Energy Laboratory Co., Ltd., priority 2014, dated 2017):

Key:
[1] = physchem; assay type: physicochemical; details: organic solvent or mixture, thermodynamic from solid
Source text: The compounds which are embodiments of the present invention and used in this example were 2mFDBtPDBq (sample 1) and 2mDBTBPDBq-VIII (sample 2). For the methods for synthesizing the compounds, Synthesis Examples 1 and 2 can be referred to. As comparative compounds, 2-[3′-(dibenzothiophen-4-yl)biphenyl-3-yl]dibenzo[f,h]quinoxaline (abbreviation: 2mDBTBPDBq-II) (comparative sample 3) and 2-[3-(dibenzothiophen-4-yl)phenyl]dibenzo[f,h]quinoxaline (abbreviation: 2mDBTPDBq-II) (comparative sample 4) were used in this example. The purity of each compound was 99.9%. The chemical formulae of the compounds are shown below.
The solvents used in this example were the four kinds of solvents: toluene, chloroform, ethyl acetate, and acetone.
A method for examining the solubility of the compound of each sample is described. First, 10 mg of the compound was put into a small bottle and to this was added 1 mL of a solvent. Then, whether the compound was dissolved at room temperature or not was checked. When the compound was not dissolved at room temperature, ultrasonic wave irradiation and then heating using a dryer were performed, so that whether the compound was dissolved or not was checked.
When the compound was not dissolved after heating, the volume of the solvent was increased to 10 mL, so that whether the compound was dissolved at room temperature or not was checked. […]

[2] = Thermogravimetry-differential thermal analysis (TG-DTA), 5% weight loss temperature; assay type: physicochemical; details: nitrogen stream 200 mL/min, normal pressure, temperature rising rate 10° C./min
Protocol: Thermogravimetry-differential thermal analysis (TG-DTA) was performed on 2mFDBtPDBq. The measurement was conducted by using a high vacuum differential type differential thermal balance (TG/DTA 2410SA, manufactured by Bruker AXS K.K.). The measurement was conducted under a nitrogen stream (flow rate: 200 mL/min) at normal pressure at a temperature rising rate of 10° C./min. It was found from the relationship between weight and temperature (thermogravimetry) that the 5% weight loss temperature of 2mFDBtPDBq was 495° C.
TG-DTA was performed on 2mDBtBPDBq-VIII. The conditions of the measurement were similar to those in Example 1. It was found from thermogravimetry that the 5% weight loss temperature of 2mDBtBPDBq-VIII was 500° C. or higher.

For CC1(C)c2ccccc2-c2ccc(-c3cccc4c3sc3c(-c5cccc(-c6cnc7c8ccccc8c8ccccc8c7n6)c5)cccc34)cc21 [2mFDBtPDBq, 2-{3-[6-(9,9-dimethylfluoren-2-yl)dibenzothiophen-4-yl]phenyl}dibenzo[f,h]quinoxaline], the solubility [1] was over 10 mg/mL and the “5% weight loss temperature” value [2] was 495 °C.
In the case of CC1(C)c2ccccc2-c2ccc(-c3cccc4c3sc3c(-c5cccc(-c6cccc(-c7cnc8c9ccccc9c9ccccc9c8n7)c6)c5)cccc34)cc21 [2mDBtBPDBq-VIII, 2-(3-{3-[6-(9,9-dimethylfluoren-2-yl)dibenzothiophen-4-yl]phenyl}phenyl)dibenzo[f,h]quinoxaline], the solubility [1] was over 10 mg/mL and the “5% weight loss temperature” value [2] was at least 500 °C.
